Assay results from US11332485B2, “Penicillin-binding protein inhibitors” (priority 2017, dated 2022).

What was measured:
[1] = system: E. coli DH5α/pLBII-CTX-M15; assay: Broth microdilution MIC assay, engineered strain producing CTX-M15; type: cell-based, Escherichia coli; conditions: Escherichia coli, read-out: E. coli DH5α/pLBII-CTX-M15 Microbiological Activity (MIC)
Method in brief: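 CLSI broth microdilution in cation-supplemented Mueller-Hinton broth, 2-fold compound dilutions, 5×10^5 CFU/mL inoculum, 16-20 h at 37° C, MIC read visually as lowest concentration without growth. E. coli DH5α carries CTX-M15 on pLBII under Lac promoter, or empty pLBII as control.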

[2] = target: T1, PBP3 from Escherichia coli (Escherichia coli, UniProt P0AD68); assay: Competition binding assay using Bodipy-FL boronic acid probe (Example 95); conditions: PBP3 3 μM, read-out: E. coli K12 PBP3 Potency
T1 construct: made in house
Experimental: PBP3 from Escherichia coli was cloned and purified as described previously (King, D. T, et al., ACS Infectious Diseases 2015, 1, 175-184). To establish assay conditions for competition binding, an enzyme titration/saturation binding experiment was performed. […] FP was measured immediately upon addition of PBP3 (Ex, Em), using a Cytation3 (BioTek) microplate reader and measured continuously for 60 minutes. […] The competition binding assay was validated using the beta-lactam ampicillin, with Bocillin-FL at a final concentration of 0.1 μM, PBP3 at a final concentration of 1.5 μM and concentrations of ampicillin from 0-1000 μM. […] Binding assays for boronic acid PBP inhibitors were performed in an identical fashion. Representative results are shown in Table 3, where A represents a potency of >500 μM, B represents a potency between 30 μM and 500 μM inclusive, and C represents a potency of <30 μM. NT=Not Tested.
The method described in Example II was adapted to use a Bodipy-labeled boronic acid PBP inhibitor (Example 13 or Example 95) to assess PBP3 potency of boronic acid PBP inhibitors. The method is identical to that described in Example II for the Bocillin-FL competition binding assay, with the following exceptions: PBP3 from Escherichia coli is used at a final concentration of 3 μM. […]

[3] = target: T1, PBP3 from Escherichia coli; assay: Fluorescence polarization competition binding assay with Bocillin-FL
Method in brief: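 Fluorescence polarization competition assay with Bocillin-FL at 0.1 μM final and purified E. coli PBP3 at 1.5 μM final in 50 mM Hepes pH 8.0, 300 mM NaCl, 5% glycerol. Inhibitor preincubated with PBP3 for 30 min before probe addition; FP then read continuously for 60 min. Potency reported in binned categories.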

T1 sequence (P0AD68 1-577): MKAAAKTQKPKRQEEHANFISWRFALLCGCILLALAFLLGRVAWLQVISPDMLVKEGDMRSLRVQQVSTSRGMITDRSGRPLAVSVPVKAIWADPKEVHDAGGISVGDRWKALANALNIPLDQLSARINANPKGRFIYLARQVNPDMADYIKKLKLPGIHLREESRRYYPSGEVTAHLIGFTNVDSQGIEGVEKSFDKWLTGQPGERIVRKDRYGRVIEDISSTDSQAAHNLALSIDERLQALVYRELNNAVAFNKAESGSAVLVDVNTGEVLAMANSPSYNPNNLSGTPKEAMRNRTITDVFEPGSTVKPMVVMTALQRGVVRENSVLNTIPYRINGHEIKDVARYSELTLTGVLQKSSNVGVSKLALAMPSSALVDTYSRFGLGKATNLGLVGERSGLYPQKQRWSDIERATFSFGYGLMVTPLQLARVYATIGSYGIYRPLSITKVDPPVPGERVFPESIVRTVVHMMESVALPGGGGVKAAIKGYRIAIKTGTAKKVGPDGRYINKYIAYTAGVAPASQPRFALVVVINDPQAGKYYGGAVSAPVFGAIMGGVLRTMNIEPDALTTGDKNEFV

CCN1CCN(C(=O)NC(C(=O)N[C@H]2Cc3cccc(C(=O)O)c3OB2O)c2csc(N)n2)C(=O)C1=O (stereo partly drawn) [Example 12, (3R)-3-(2-(2-aminothiazol-4-yl)-2-(4-ethyl-2,3-dioxopiperazine-1-carboxamido)acetamido)-2-hydroxy-3,4-dihydro-2H-benzo[e][1,2]oxaborinine-8-carboxylic acid]
MIC [1]: 8 to 16 µg/mL | EC50 [2]: < 10 µM | EC50 [3]: < 30 µM
